From patent US5006546A, “Imidazole derivatives” (Rhone-Poulenc Sante, priority 1989, dated 1991)

Target: T1, acyl coenzyme-A:cholesterol-O-acyl transferase (ACAT; EC 2.3.1.26) (Rattus norvegicus, UniProt Q7TQM4)
T1 construct: microsomes obtained from the livers of rats; from tissue; host or cells: liver microsomes of rats fed 0.5% w/w cholesterol and 0.25% w/w cholic acid
T1 sequence (Q7TQM4 1-524): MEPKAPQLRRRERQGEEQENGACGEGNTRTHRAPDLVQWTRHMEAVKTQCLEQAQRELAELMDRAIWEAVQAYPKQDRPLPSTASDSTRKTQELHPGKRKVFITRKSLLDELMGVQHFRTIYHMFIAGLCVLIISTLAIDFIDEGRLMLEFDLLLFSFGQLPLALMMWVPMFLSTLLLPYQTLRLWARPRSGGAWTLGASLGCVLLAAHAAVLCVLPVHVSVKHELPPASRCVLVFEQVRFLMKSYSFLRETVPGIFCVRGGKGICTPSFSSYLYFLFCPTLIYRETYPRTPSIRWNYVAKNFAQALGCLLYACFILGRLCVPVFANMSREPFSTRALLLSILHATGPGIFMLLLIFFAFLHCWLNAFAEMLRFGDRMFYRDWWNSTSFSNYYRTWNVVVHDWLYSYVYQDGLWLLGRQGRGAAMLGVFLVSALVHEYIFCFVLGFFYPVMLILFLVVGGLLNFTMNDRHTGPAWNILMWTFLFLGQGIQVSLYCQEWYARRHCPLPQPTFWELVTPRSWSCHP
Test: In vitro inhibition of acyl coenzyme-A:cholesterol-O-acyl transferase (ACAT) in liver microsomes of cholesterol/cholic acid-fed rats
Format: biochemical
Details: microsomes from livers of rats fed a diet containing 0.5% w/w cholesterol and 0.25% w/w cholic acid

IC50 [nM] | SMILES
50 | CO[C@@H]1C[C@H](O)C[C@@H](CSc2nc(-c3ccccc3)c(-c3ccccc3)[nH]2)O1 [(I), (2S,4R,6S)-6-[(4,5-diphenylimidazol-2-yl)thiomethyl]-4-hydroxy-2-methoxy-3,4,5,6-tetrahydro-2H-pyran]
91 | CO[C@H]1C[C@H](O)C[C@@H](CSc2nc(-c3ccccc3)c(-c3ccccc3)[nH]2)O1 [(II), (2R,4R,6S)-6-[(4,5-diphenylimidazol-2-yl)thiomethyl]-4-hydroxy-2-methoxy-3,4,5,6-tetrahydro-2H-pyran]
